Reference: patent publication US20220152150A1, “MESOPOROUS SILICA PARTICLES COMPOSITIONS FOR VIRAL DELIVERY” (Novartis AG, priority 2019, published 2022)

Test system: EGFRvIII CARTs
Assay: Cytokine production of EGFRvIII CARTs stimulated by ligand-presenting MSRs (multiplex cytokine analysis)
Type: cell-based
Details: lipid-coated MSRs, 1% PE-biotin in the lipid coating; FIG. 8
Protocol: MSRs with surface-immobilized ligands were prepared as described in Cheung, A. S., et al., Scaffolds that mimic antigen-presenting cells enable ex vivo expansion of primary T cells. Nature Biotechnology, 36(2), 160-169.
Briefly, liposomes primarily composed of POPC with 1 mol % PE-biotin were formed using a thin film rehydration method and extrusion through a 100 nm polycarbonate membrane. Hydroxyl functionalized MSRs were incubated with the liposomes to allow the formation of a supported lipid bilayer on the MSR surface (FIG. 6). To functionalize the MSRs with CD3 and CD28 agonistic antibodies, MSRs were washed several times with PBS, incubated with streptavidin, and then tethered with biotinylated CD3 and CD28 antibodies. For MSR-immobilization of EGFRvIII CAR-binding peptides, a biotinylated EGFRvIII CAR-binding peptide was used (FIG. 7). For BCMA CART stimulation, recombinant BCMAFc protein was biotinylated using biotin-NHS and similarly coupled to the MSR surface.
After incubation with the desired ligands, MSRs were washed several times with PBS and resuspended in culture medium at various concentrations and incubated with T cells. T cell proliferation was read out using CFSE labeling of the T cells and assessing dye dilution by flow cytometry. Cytokine production was assessed using a multiplex cytokine analysis method (Mesoscale […] V-Plex).
EGFRvIII CARTs produced interferon gamma and IL-2 in response to EGFRvIII CAR-binding peptide bound to the surface of the MSRs, while free EGFRvIII CAR-binding peptide in solution, a non-stimulating peptide (OVA) presented on the MSRs, or undecorated MSRs gave no response from the CARTs (FIG. 8). In another experiment, the proliferation of EGFRvIII CARTs were monitored in response to various stimuli using cell counting (FIG. 9).

| Substance | IL-2 production | interferon gamma production |
| --- | --- | --- |
| EGFRvIII CAR-binding peptide bound to the surface of the MSRs: biotinylated EGFRvIII CAR-binding peptide (LEEKKGNYVVTDH, SEQ ID NO: 674) immobilized via streptavidin on lipid-coated MSRs | produced | produced |
| free EGFRvIII CAR-binding peptide: EGFRvIII CAR-binding peptide (LEEKKGNYVVTDH (SEQ ID NO: 674)) free in solution | no response | no response |
